According to patent US20090011937A1, “Use of Fungicides for Increasing the Quality and Optionally the Quantity of Oil-Plant Products” (priority 2006, published 2009):

What was measured:
Format in all cases: in vivo
Oilseed rape [1] = test: Alkaline-earth metal content (Ca, Mg) of oil, oilseed rape treated with metconazole, pressing with normal pressure (DIN EN 14538); settings: oil of rapeseed, Germany 2004/2005; spray autumn and spring, in each case 60 g active ingredient per ha; pressed under normal pressure; untreated 5.7
Method: (§1) Oilseed rape was grown in 2004/2005 in Germany under the usual conditions. In autumn 2004 (growth stage BBCH 14-16) and in spring 2005 (growth stage BBCH 31-51), some of the oilseed rape was treated by spraying with metconazole (employed in the form of the commercially available product Caramba®; application rate: in each case 60 g active ingredient per ha). For comparison purposes, the remainder of the oilseed rape remained untreated. The plants were harvested in summer 2005 (growth stage BBCH 92). The rapeseed was pressed with a press from Ökotec under normal pressure (nozzle 8, 40 rpm, temperature at the pressing head 60° C.), and the phosphorus content and the alkaline-earth metal content (Ca, Mg) of the resulting oil were determined in accordance with DIN EN 14107 and DIN EN 14538, respectively.

[2] = test system: Oilseed rape cv. "Trabant"; test: Alkaline-earth metal content of oil, oilseed rape treated with metconazole, pressing with normal pressure and high pressure (DIN EN 14538)
Method: Oilseed rape cv. “Trabant” was grown under the usual conditions in 2005/2006 in Germany at the Bothkamp site. In autumn 2005 (growth stage BBCH 16-18) and in spring 2006 (BBCH 31-51), some of the oilseed rape plants were treated by spraying with metconazole (employed in the form of the commercially available product Caramba®; application rate: in each case 60 g active ingredient per ha). For comparison reasons, the remainder of the rapeseed plants remained untreated. The plants were harvested in summer 2006 (growth stage BBCH 92). The rapeseed was pressed with a press from Ökotec and the alkaline-earth metal content (Ca, Mg) of the resulting oil was determined as specified in DIN EN 14538. Here, part of the rapeseed was pressed under normal pressure (nozzle 8, 40 rpm, temperature at the pressing head 60° C.) and another portion under high pressure (nozzle 6, 70 rpm, temperature at the pressing head >70° C.).

[3] = test system: Oilseed rape cv. "Trabant"; test: Phosphorus content of oil, oilseed rape treated with metconazole or metconazole in combination with boscalid, pressing at high pressure (DIN EN 14107); settings: oil of rapeseed cv. Trabant, Bothkamp 2005/2006; metconazole 60 g/ha autumn and spring, boscalid 250 g/ha at anthesis; pressed under high pressure; untreated 5.0
Method: Oilseed rape cv. “Trabant” was grown under the usual conditions in 2005/2006 in Germany at the Bothkamp site. In autumn 2005 (growth stage BBCH 16-18) and in spring 2006 (BBCH 31-51), some of the oilseed rape plants were treated by spraying with metconazole (employed in the form of the commercially available product Caramba®; application rate: in each case 60 g active ingredient per ha). Some other oilseed rape plants were furthermore additionally treated during anthesis (BBCH 65) by spraying with boscalid (employed in the form of the commercially available product Cantus®; application rate: 250 g active substance per ha). For comparison reasons, some of the rapeseed plants remained untreated. The plants were harvested in summer 2006 (growth stage BBCH 92). The rapeseed was pressed with a press from Ökotec under high pressure (nozzle 6, 70 rpm, temperature at the pressing head >70° C.), and the phosphorus content of the resulting oil was determined in accordance with DIN EN 14107.

Oilseed rape [4] = test: Phosphorus content of oil, oilseed rape treated with metconazole, pressing with normal pressure (DIN EN 14107); settings: oil of rapeseed, Germany 2004/2005; spray autumn and spring, in each case 60 g active ingredient per ha; pressed under normal pressure; untreated 1.9
Method: as §1

[5] = test system: Oilseed rape cv. "Lioness"; test: Overall contamination of oil from treated oilseed rape (DIN EN 12662); settings: oil of rapeseed cv. Lioness, Britain 2005/2006; spray during anthesis (BBCH 61-65); normal pressure; untreated 33
Method: Oilseed rape cv. “Lioness” was grown in 2005/2006 in Britain under the normal conditions. During anthesis (growth stage BBCH 61-65), the rapeseed plants were treated by spraying either with boscalid (employed in the form of the commercially available product Cantus®; application rate: 250 g active substance per ha), with boscalid in combination with dimoxystrobin (employed in the form of the commercially available product Pictor®; application rate: in each case 100 g active substance per ha), with prothioconazole (employed in the form of the commercially available product Proline®; application rate: 175 g active substance per ha) or with azoxystrobin (employed in the form of the commercially available product Amistar®; application rate: 200 g active substance per ha). For comparison reasons, some of the rapeseed plants remained untreated. The plants were harvested in summer 2006 (BBCH 92). The rapeseed was pressed with a press from Ökotec under normal pressure (nozzle 8, 40 rpm, temperature at the pressing head 60° C.), and the overall contamination of the oil obtained was determined as specified in DIN EN 12662.

[6] = test system: Oilseed rape cv. "Lioness"; test: Sulfur content of oil from treated oilseed rape (EN ISO 20884); settings: oil of rapeseed cv. Lioness, Britain 2005/2006; spray during anthesis; normal pressure; untreated 4
Method: Oilseed rape cv. “Lioness” was grown in 2005/2006 in Britain under the normal conditions. During anthesis (growth stage BBCH 61-65), the rapeseed plants were treated by spraying either with boscalid (employed in the form of the commercially available product Cantus®; application rate: 250 g active substance per ha), with boscalid in combination with dimoxystrobin (employed in the form of the commercially available product Pictor®; application rate: in each case 100 g active substance per ha), with prothioconazole (employed in the form of the commercially available product Proline®; application rate: 175 g active substance per ha) or with azoxystrobin (employed in the form of the commercially available product Amistar®; application rate: 200 g active substance per ha). For comparison reasons, some of the rapeseed plants remained untreated. The plants were harvested in summer 2006 (BBCH 92). The rapeseed was pressed with a press from Ökotec under normal pressure (nozzle 8, 40 rpm, temperature at the pressing head 60° C.), and the sulfur content of the oil obtained was determined as specified in EN ISO 20884.

[7] = test system: Oilseed rape cv. "Talent"; test: Resistance to oxidation of oil, oilseed rape treated with boscalid or boscalid in combination with dimoxystrobin (DIN EN 14112); settings: oil of rapeseed cv. Talent, Tachenhausen 2005/2006; spray during anthesis; normal pressure; untreated 9.5
Method: Oilseed rape cv. “Talent” was grown in 2005/2006 under the usual conditions at the Tachenhausen site in Germany. During anthesis (growth stage BBCH 61-65), the oilseed rape plants were treated by spraying either with boscalid (employed in the form of the commercially available product Cantus®; application rate: 250 g active substance per ha) or with boscalid in combination with dimoxystrobin (employed in the form of the commercially available product Pictor®; application rate: in each case 100 g active ingredient per ha). For comparison reasons, some of the oilseed rape plants remained untreated. The plants were harvested in summer 2006 (BBCH 92). The rapeseed was pressed with a press from Ökotec under normal pressure (nozzle 8, 40 rpm, temperature at the pressing head 60° C.), and the resistance to oxidation of the oil obtained was determined as specified in DIN EN 14112.

[8] = test system: Oilseed rape cv. "Talent"; test: Iodine number of oil, oilseed rape treated with boscalid (EN 14111); settings: oil of rapeseed cv. Talent, Tachenhausen 2005/2006; boscalid 250 g/ha during anthesis; normal pressure; untreated 108
Method: Oilseed rape cv. “Talent” was grown in 2005/2006 under the usual conditions at the Tachenhausen site in Germany. During anthesis (growth stage BBCH 61-65), the oilseed rape plants were treated by spraying with boscalid (employed in the form of the commercially available product Cantus®; application rate: 250 g active substance per ha). For comparison reasons, some of the oilseed rape plants remained untreated. The plants were harvested in summer 2006 (BBCH 92). The rapeseed was pressed with a press from Ökotec under normal pressure (nozzle 8, 40 rpm, temperature at the pressing head 60° C.), and the iodine number of the oil obtained was determined as specified in EN 14111.

[9] = test system: Oilseed rape cv. "Lioness"; test: Acid content of oil, oilseed rape treated with boscalid or boscalid in combination with dimoxystrobin (DIN EN 14104); settings: oil of rapeseed cv. Lioness, Britain 2005/2006; spray during anthesis; normal pressure; untreated 0.41
Method: Oilseed rape cv. “Lioness” was grown in 2005/2006 in Britain under the normal conditions. During anthesis (growth stage BBCH 61-65), the rapeseed plants were treated by spraying either with boscalid (employed in the form of the commercially available product Cantus®; application rate: 250 g active substance per ha) or with boscalid in combination with dimoxystrobin (employed in the form of the commercially available product Pictor®; application rate: in each case 100 g active substance per ha). For comparison reasons, some of the rapeseed plants remained untreated. The plants were harvested in summer 2006 (BBCH 92). The rapeseed was pressed with a press from Ökotec under normal pressure (nozzle 8, 40 rpm, temperature at the pressing head 60° C.), and the acid content of the oil obtained was determined as specified in DIN EN 14104.

Structure (SMILES): CC1(C)CCC(Cc2ccc(Cl)cc2)C1(O)Cn1cncn1 (stereo not drawn) [2 × metconazole, metconazole]
- Alkaline-earth metal content (Ca + Mg) (Oilseed rape [1]): 3.9 mg/kg
- Brittleness of the seed coat ([2]; inferred from the more pronounced reduction of alkaline-earth metal content in high-pressure oil versus normal-pressure oil): appears to reduce the brittleness of the seed coat
- Alkaline-earth metal content (Ca + Mg) - high pressure ([2]; oil of rapeseed cv. Trabant, Bothkamp 2005/2006, metconazole 60 g/ha autumn and spring, high pressure (nozzle 6, 70 rpm, >70° C.), untreated 9): 5 mg/kg
- Alkaline-earth metal content (Ca + Mg) - normal pressure ([2]; oil of rapeseed cv. Trabant, Bothkamp 2005/2006, metconazole 60 g/ha autumn and spring, normal pressure (nozzle 8, 40 rpm, 60° C.), untreated 6): 4 mg/kg
- Phosphorus content [3]: 4.0 mg/kg
- Phosphorus content (Oilseed rape [4]): <1 mg/kg

Structure (SMILES): CO/C=C(/C(=O)OC)c1ccccc1Oc1cc(Oc2ccccc2C#N)ncn1 [Azoxystrobin, azoxystrobin]
- Overall contamination [5]: 24 mg/kg
- Sulfur content [6]: 2 mg/kg

Structure (SMILES): O=C(Nc1ccccc1-c1ccc(Cl)cc1)c1cccnc1Cl [Boscalid, boscalid]
- Resistance to oxidation at 110° C. [7]: 9.7 h
- Overall contamination [5]: 20 mg/kg
- Iodine number [8]: 105 g iodine per 100 g
- Sulfur content [6]: 2 mg/kg
- Acid number [9]: 0.32 mg KOH/g

Structure (SMILES): OC(Cc1ccccc1Cl)(Cn1nc[nH]c1=S)C1(Cl)CC1 (stereo not drawn) [Prothioconazole, prothioconazole]
- Overall contamination [5]: 22 mg/kg
- Sulfur content [6]: 2 mg/kg
